Values of other authors in publication PMC4457528, “Identification of Novel Small Molecule Inhibitors of Oncogenic RET Kinase” (PLoS ONE, 2015).

Key:
[1] = system: RET and its gate-keeper mutants; settings: cited from earlier work
[2] = system: RET Y806C; parameters: method as in PMID 15184865, PMID 19029224; settings: cited from earlier work

Cc1ccc(C(=O)Nc2ccc(CN3CCN(C)CC3)c(C(F)(F)F)c2)cc1C#Cc1cnc2cccnn12 [ponatinib]
inhibition of RET and its gate-keeper mutants [1]: potently inhibits

COc1cc2c(Nc3ccc(Br)cc3F)ncnc2cc1OCC1CCN(C)CC1 [vandetanib]
fold increase of in vitro IC50 dose for RET by Y806C [2]: 10 fold
